Reference: patent publication US10501516B2, “Peptide compound” (TAKEDA PHARMACEUTICAL COMPANY LIMITED, priority 2016, dated 2019)
pEC50: −log10 of the molar value. Square brackets hold non-standard residues; d marks the D form. Side chains are listed from the residue outwards. Peptide text beside a SMILES is read from it. * marks the point of attachment. C18 diacid = O=C(O)CCCCCCCCCCCCCCCCC(=O)*; NMeY = CN[C@@H](Cc1ccc(O)cc1)C(=O)O; αMeF = C[C@](N)(Cc1ccccc1)C(=O)O; Iva = CC[C@](C)(N)C(=O)O; Aib = CC(C)(N)C(=O)O

Legend:
human GLP-1R = molecular target: T1, human GLP-1R (Homo sapiens, UniProt P43220); assay: Reporter assay of human GLP-1R gene (agonist activity, intracellular cAMP as index); type: cell-based; conditions: Cre-luc reporter, hGLP-1R/Crel cells (CHO-K1), 4 hours
T1 construct: expressed in transfected cells; host or cells: CHO-K1 Cre-luc reporter cells (hGLP-1R/Crel cells)
From the text: (§1) Evaluation of Agonist Activity Against Human NPY2R, Human GIPR, and Human GLP-1R Using Change in Intracellular cAMP Concentration as Index
The human GLP-1R gene having a sequence identical to the sequence of GenBank Accession No. NM_002062 was cloned into pIRESneo3 vector (Clontech Laboratories, Inc.) to prepare hGLP-1R/pIRESneo3. This vector was introduced to the Cre-luc reporter cells obtained in (1) to obtain transformants. Next, a cell line induced to express luciferase, i.e., hGLP-1R/Crel cells, were selected from the obtained transformants by the addition of human GLP-1(7-37) peptide.
The hGIPR/CRE-LUC/CHO-K1 cells or the hGLP-1R/Crel cells were inoculated at a cell density of 25 μL/well (5,000 cells/well) to a 384-well white plate (Corning, 3570), and cultured overnight in Ham F12 medium containing 10% fetal bovine serum, 100 U/mL penicillin and 100 μg/mL streptomycin in a CO2 incubator of 37° C. On the next day, a medium containing a test compound was added at a concentration of 5 μL/well to the cells, and the resultant cells were incubated for 4 hours in a CO2 incubator of 37° C. to give the final concentration of 1 μM. SteadyGlo (Promega) was added thereto at a concentration of 30 μL/well, and the mixture was shaken with light shielded. After 30 minutes, the luciferase activity was measured using a plate reader Envision (PerkinElmer). For the GIPR agonist activity, the luciferase activity in the presence of 10 μM GIP was defined as 100%, and the luciferase activity from the addition of DMSO instead of the test compound was defined as 0%. The GIPR agonist activity was calculated with a rise in intracellular cAMP concentration as an index.
For the GLP-1R agonist activity, assay similar to above was conducted using the hGLP-1R/Crel cells. The luciferase activity in the presence of 10 μM GLP-1 was defined as 100%, and the luciferase activity from the addition of DMSO instead of the test compound was defined as 0%. The GLP-1R agonist activity was calculated with a rise in intracellular cAMP concentration as an index.

human GIPR = molecular target: T2, human GIPR (Homo sapiens, UniProt P48546); assay: Reporter assay of human GIPR gene (agonist activity, intracellular cAMP as index); type: cell-based; conditions: Cre-luc reporter, hGIPR/CHO-K1 cells, 4 hours
T2 construct: expressed in transfected cells; host or cells: CHO-K1 Cre-luc reporter cells (hGIPR/CHO-K1, also called hGIPR/CRE-LUC/CHO-K1)
T2 sequence (P48546 22-466): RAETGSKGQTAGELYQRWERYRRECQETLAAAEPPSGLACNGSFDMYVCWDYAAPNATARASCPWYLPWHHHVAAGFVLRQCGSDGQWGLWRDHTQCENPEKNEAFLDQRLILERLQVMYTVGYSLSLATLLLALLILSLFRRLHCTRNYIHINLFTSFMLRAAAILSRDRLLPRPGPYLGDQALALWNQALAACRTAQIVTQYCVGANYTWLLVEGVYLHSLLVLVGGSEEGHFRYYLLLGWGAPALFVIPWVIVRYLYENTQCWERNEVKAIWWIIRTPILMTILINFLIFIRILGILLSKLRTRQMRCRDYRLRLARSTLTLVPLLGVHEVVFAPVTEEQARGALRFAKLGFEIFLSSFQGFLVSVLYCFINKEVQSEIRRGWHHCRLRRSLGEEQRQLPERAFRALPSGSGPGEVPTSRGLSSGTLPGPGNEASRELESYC

human NPY2R = molecular target: T3, human NPY2R (Homo sapiens, UniProt P49146); assay: Reporter assay of human NPY2R gene (agonist activity, decrease in intracellular cAMP as index); type: cell-based; conditions: Cre-luc reporter, hNPY2R CHO-K1 cells, forskolin 1.2 μM, 4 hours; read-out: Agonist activity (EC50) hY2R
T3 construct: expressed in transfected cells; host or cells: CHO-K1 Cre-luc reporter cells (pAKKO1114/hNPY2R#481 No. 88 cells)
T3 sequence (P49146 1-381): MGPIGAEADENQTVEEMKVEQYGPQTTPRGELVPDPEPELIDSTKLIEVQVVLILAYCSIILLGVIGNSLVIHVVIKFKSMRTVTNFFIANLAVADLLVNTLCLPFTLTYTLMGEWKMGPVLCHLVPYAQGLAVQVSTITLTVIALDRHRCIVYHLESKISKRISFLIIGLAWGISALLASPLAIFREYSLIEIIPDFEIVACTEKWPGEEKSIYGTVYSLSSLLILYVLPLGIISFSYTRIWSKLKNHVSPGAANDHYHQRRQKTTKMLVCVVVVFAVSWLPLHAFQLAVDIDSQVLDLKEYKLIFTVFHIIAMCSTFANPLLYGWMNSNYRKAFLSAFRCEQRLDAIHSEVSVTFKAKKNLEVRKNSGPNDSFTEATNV
From the text: as §1
The human NPY2R gene having a sequence identical to the sequence of GenBank Accession No. AC104407 was cloned into pAKKO1114 vector to prepare hNPY2R/pAKKO1114. Next, pGL4.29 (Promega) was introduced to CHO-K1 cells, which were then screened with hygromycin to construct Cre-luc reporter cells. These cells were cotransfected with hNPY2R/pAKKO1114 and pcDNA3.1 (Life Technologies Corp.), and the cells were screened with geneticin. Next, a cell line induced to express luciferase, i.e., pAKKO1114/hNPY2R#481 No. 88 cells, were selected from the obtained transformants by the addition of human PYY (3-36).
The pAKKO1114/hNPY2R#481 No. 88 cells were inoculated at a cell density of 25 μL/well (5,000 cells/well) to a 384-well white plate (Corning, 3570), and cultured overnight in Ham F12 medium containing 10% fetal bovine serum, 100 U/mL penicillin and 100 μg/mL streptomycin in a CO2 incubator of 37° C. On the next day, the medium was removed, and an assay medium (Ham F12 medium containing 0.1% BSA, 100 U/mL penicillin and 100 μg/mL streptomycin) containing forskolin (final concentration: 1.2 μM) was added at a concentration of 25 μL/well to the cells. Next, an assay medium containing a test compound was added at a concentration of 5 μL/well to the cells, and the resultant cells were incubated for 4 hours in a CO2 incubator of 37° C. to give the final concentration of 1 μM. SteadyGlo (Promega) was added thereto at a concentration of 30 μL/well, and the mixture was left standing for 20 minutes with light shielded. The luciferase activity was measured using a plate reader Envision (PerkinElmer). The luciferase activity from the addition of DMSO was defined as 100%, and the luciferase activity from the addition of 1 μM human PYY(3-36) instead of the test compound was defined as 0%. The NPY2R agonist activity was calculated with a decrease in intracellular cAMP concentration as an index.

Male C57BL/6J mice = assay: Conditioned taste aversion (CTA) test; type: in vivo, mouse; conditions: 10 nmol/kg s.c.
Method: Male C57BL/6J (9 weeks old) mice were habituated to time-restricted bottled water supply (2-3 hours/day) and subcutaneous injection of saline for 1 week. Mice were divided into the groups based on the data of body weight and water intake. CTA test was performed according to the following protocol. On day 1 for the first conditioning, mice were given 0.1% sodium saccharin solution to drink for 3 hours. Ten-minutes after supplying the saccharin solution, vehicles, liraglutides and P41 were administered subcutaneously. […] On day 2, mice were given tap water for 3 hours and subcutaneous injection of saline after water supply. On day 3, the second conditioning was conducted as the same procedure used on day 1. On day 4, mice were given tap water for 3 hours without subcutaneous injection. On day 5, both tap water and saccharin solution were supplied to mice for 3 hours without subcutaneous injection and the intake of each fluid was measured. Saccharin preference ratio (%) was calculated according to the following equation: {(amount of saccharin intake)/(amount of saccharin intake+amount of water intake)}×100.

T1 sequence (P43220 24-463): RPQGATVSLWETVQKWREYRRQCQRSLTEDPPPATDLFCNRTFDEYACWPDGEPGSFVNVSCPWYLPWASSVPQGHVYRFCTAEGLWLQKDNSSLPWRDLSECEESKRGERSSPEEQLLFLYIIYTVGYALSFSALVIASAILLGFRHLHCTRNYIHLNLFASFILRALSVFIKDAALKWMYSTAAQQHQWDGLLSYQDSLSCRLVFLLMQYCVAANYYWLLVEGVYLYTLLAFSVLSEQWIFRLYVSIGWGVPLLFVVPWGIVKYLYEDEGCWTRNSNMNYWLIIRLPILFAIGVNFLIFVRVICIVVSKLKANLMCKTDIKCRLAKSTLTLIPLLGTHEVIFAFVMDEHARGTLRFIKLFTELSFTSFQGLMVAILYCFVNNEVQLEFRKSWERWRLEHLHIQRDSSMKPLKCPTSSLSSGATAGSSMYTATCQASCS

pEC50 (human GLP-1R)	pEC50 (human GIPR)	pEC50 (human NPY2R)	SMILES	induction of conditioned taste aversion (emetic effects) (Male C57BL/6J mice)
8.89	9.60	8.59	CC[C@H](C)[C@H](NC(=O)[C@H](CO)NC(=O)[C@H](CCCCNC(=O)CNC(=O)CNC(=O)CNC(=O)CNC(=O)CCCCCCCCCCCCCCCCC(=O)O)NC(=O)[C@H](CC(=O)O)NC(=O)[C@H](CO)NC(=O)[C@@H](NC(=O)[C@](C)(Cc1ccccc1)NC(=O)[C@@H](NC(=O)CNC(=O)[C@H](CCC(=O)O)NC(=O)C(C)(C)NC(=O)[C@H](Cc1ccc(O)cc1)NC)[C@@H](C)O)[C@@H](C)O)C(=O)NC(C)(C)C(=O)N[C@@H](CC(C)C)C(=O)N[C@@H](CCC(=O)O)C(=O)N[C@@H](CCCCN)C(=O)N[C@@H](CCC(N)=O)C(=O)N[C@@H](CCCNC(=N)N)C(=O)N[C@@H](CCC(N)=O)C(=O)N[C@@](C)(CC)C(=O)N[C@@H](CCC(=O)O)C(=O)N[C@@H](Cc1ccccc1)C(=O)N[C@H](C(=O)N[C@@H](CCCNC(=N)N)C(=O)N[C@@H](Cc1c[nH]cn1)C(=O)N[C@@H](CC(C)C)C(=O)N[C@@H](CC(C)C)C(=O)N[C@@H](CC(N)=O)C(=O)N[C@@H](CCCCN)C(=O)NC(C)(C)C(=O)N[C@H](C(=O)N[C@@H](CCCNC(=N)N)C(=O)N[C@@H](CCC(N)=O)C(=O)N[C@@H](CCCNC(=N)N)C(=O)N[C@@H](Cc1ccc(O)cc1)C(N)=O)[C@@H](C)O)C(C)C [Example 42] (H-[NMeY][Aib]EGT[αMeF]TSDK([Gly-Gly-Gly-Gly-C18 diacid])SI[Aib]LEKQRQ[Iva]EFVRHLLNK[Aib]TRQRY-NH2)	
			CCCCCCCCCCCCCCCC(=O)N[C@@H](CCC(=O)NCCCC[C@H](NC(=O)[C@H](C)NC(=O)[C@H](C)NC(=O)[C@H](CCC(N)=O)NC(=O)CNC(=O)[C@H](CCC(=O)O)NC(=O)[C@H](CC(C)C)NC(=O)[C@H](Cc1ccc(O)cc1)NC(=O)[C@H](CO)NC(=O)[C@H](CO)NC(=O)[C@@H](NC(=O)[C@H](CC(=O)O)NC(=O)[C@H](CO)NC(=O)[C@@H](NC(=O)[C@H](Cc1ccccc1)NC(=O)[C@@H](NC(=O)CNC(=O)[C@H](CCC(=O)O)NC(=O)[C@H](C)NC(=O)[C@@H](N)Cc1cnc[nH]1)[C@@H](C)O)[C@@H](C)O)C(C)C)C(=O)N[C@@H](CCC(=O)O)C(=O)N[C@@H](Cc1ccccc1)C(=O)N[C@H](C(=O)N[C@@H](C)C(=O)N[C@@H](Cc1c[nH]c2ccccc12)C(=O)N[C@@H](CC(C)C)C(=O)N[C@H](C(=O)N[C@@H](CCCNC(=N)N)C(=O)NCC(=O)N[C@@H](CCCNC(=N)N)C(=O)NCC(=O)O)C(C)C)[C@@H](C)CC)C(=O)O [Liraglutide, liraglutide, reference compound]	significantly decreased saccharin preference ratio
